This is an account of results in patent publication US20250186437A1, “CARBOLINE COMPOUNDS AND USE THEREOF” (PTC Therapeutics, Inc., priority 2021, published 2025).

In the assay the test system is MOLM-13 cells. Nature of the assay: MOLM-13 Cell Proliferation Assay (indicator of DHODH inhibition). Type of assay: cell-based. The conditions noted are these: Homo sapiens, 72 Hours of culture, CellTiter-Glo, no uridine. A digest of the protocol:
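Low-passage MOLM-13 cells (10^4/well) in RPMI 1640 + 10% FBS exposed to compound (0.5% DMSO final) for 72 h at 37 °C, 5% CO2. Viability read by CellTiter-Glo luminescence; growth reflects de novo pyrimidine synthesis dependent on DHODH.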
(Cellular ATP, detected with luciferase, serves as a proxy for viable cell number.)

For orientation: IC50 means the concentration that inhibits the measured activity by half. Read a low IC50 as inhibition by little substance. In turn, `Cc1ccc(C2c3[nH]c4cc(F)c(Cl)cc4c3CCN2c2nc(Cl)cc(Cl)n2)cc1` (stereo not shown) [Compound 16, 6-chloro-2-(4,6-dichloropyrimidin-2-yl)-7-fluoro-1-(4-methylphenyl)-2,3,4,9-tetrahydro-1H-pyrido[3,4-b]indole] had an IC50 of 1.8 nM.
Regarding `Fc1cc2[nH]c3c(c2cc1Cl)CCN(c1nccc(C(F)(F)F)n1)C3c1ccc(Br)c(F)c1F` (stereo not shown) [Compound 172, 1-(4-bromo-2,3-difluorophenyl)-6-chloro-7-fluoro-2-[4-(trifluoromethyl)pyrimidin-2-yl]-2,3,4,9-tetrahydro-1H-pyrido[3,4-b]indole], 1.5 nM corresponded to half-maximal inhibition (IC50).
`Fc1cc2[nH]c3c(c2cc1Cl)CCN(c1ncc(Cl)cn1)C3c1ccc(Cl)cc1` (stereo not shown) [Compound 29, 6-chloro-1-(4-chlorophenyl)-2-(5-chloropyrimidin-2-yl)-7-fluoro-2,3,4,9-tetrahydro-1H-pyrido[3,4-b]indole] came in with an IC50 of 39.1 nM.
The value for `Cc1ccc(C2c3[nH]c4ccc(F)c(F)c4c3CCN2c2ncc(F)cn2)cc1` (stereo not shown) [Compound 82, 5,6-difluoro-2-(5-fluoropyrimidin-2-yl)-1-(4-methylphenyl)-2,3,4,9-tetrahydro-1H-pyrido[3,4-b]indole] was 86.5 nM.
The value for `C[C@@H]1CN(c2ncc([C@H]3c4[nH]c5ccc(Cl)cc5c4CCN3c3nc(C(F)(F)F)cc(C(F)(F)F)n3)cn2)C[C@H](C)N1` [Compound 503, (1S)-2-[4,6-bis(trifluoromethyl)pyrimidin-2-yl]-6-chloro-1-{2-[(3R,5S)-3,5-dimethylpiperazin-1-yl]pyrimidin-5-yl}-2,3,4,9-tetrahydro-1H-pyrido[3,4-b]indole] was 7.3 nM; that for `CC(=O)c1ncc([C@H]2c3[nH]c4ccc(Cl)cc4c3CCN2c2nc(C(F)(F)F)nc(C(F)(F)F)n2)cn1` [Compound 533, 1-(5-{(1S)-2-[4,6-bis(trifluoromethyl)-1,3,5-triazin-2-yl]-6-chloro-2,3,4,9-tetrahydro-1H-pyrido[3,4-b]indol-1-yl}pyrimidin-2-yl)ethan-1-one] was 4.7 nM.
The value for `Cc1cc(C#N)nc(N2CCc3c([nH]c4ccc(Cl)c(F)c34)C2c2ccc(C)c(F)c2F)n1` (stereo not shown) [Compound 232, 2-[6-chloro-1-(2,3-difluoro-4-methylphenyl)-5-fluoro-1,3,4,9-tetrahydro-2H-pyrido[3,4-b]indol-2-yl]-6-methylpyrimidine-4-carbonitrile] was 0.5 nM.
`Cc1ccc(C2c3[nH]c4ccc(Cl)cc4c3CCN2c2nc(C(F)(F)F)nc(C(F)(F)F)n2)c(F)c1F` (stereo not shown) [Compound 497, 2-[4,6-bis(trifluoromethyl)-1,3,5-triazin-2-yl]-6-chloro-1-(2,3-difluoro-4-methylphenyl)-2,3,4,9-tetrahydro-1H-pyrido[3,4-b]indole] came in with an IC50 of 0.2 nM. This IC50 lies about 2.5-fold lower than the previous one.
Compound `Cc1ccc([C@H]2c3[nH]c4ccc(Cl)cc4c3CCN2c2nc(CO)nc(C(F)(F)F)n2)c(F)c1F` [Compound 521, {4-[(1S)-6-chloro-1-(2,3-difluoro-4-methylphenyl)-1,3,4,9-tetrahydro-2H-pyrido[3,4-b]indol-2-yl]-6-(trifluoromethyl)-1,3,5-triazin-2-yl}methanol] showed an IC50 of 3.3 nM.
`Cc1ccc([C@@H]2c3[nH]c4ccc(Cl)cc4c3CCN2c2ncc(F)c(C)n2)c(F)c1F` [Compound 187, (1R)-6-chloro-1-(2,3-difluoro-4-methylphenyl)-2-(5-fluoro-4-methylpyrimidin-2-yl)-2,3,4,9-tetrahydro-1H-pyrido[3,4-b]indole] came in with an IC50 of 20.3 nM. This IC50 is about 6.2-fold higher than that of the compound before.
`Cc1nc(N2CCc3c([nH]c4ccc(Cl)c(F)c34)C2c2ccc(/C=C/CCO)cc2)nc(C)c1F` (stereo not shown) [Compound 243, (3E)-4-{4-[6-chloro-5-fluoro-2-(5-fluoro-4,6-dimethylpyrimidin-2-yl)-2,3,4,9-tetrahydro-1H-pyrido[3,4-b]indol-1-yl]phenyl}but-3-en-1-ol] showed an IC50 of 1.1 nM.
As for `Cc1nc(C)nc(N2CCc3c([nH]c4ccc(Cl)cc34)C2c2ccc(N3C[C@H]4C[C@@H]3CO4)nc2)n1` (stereo partly drawn) [Compound 376, 6-chloro-2-(4,6-dimethyl-1,3,5-triazin-2-yl)-1-{6-[(1R,4R)-2-oxa-5-azabicyclo[2.2.1]heptan-5-yl]pyridin-3-yl}-2,3,4,9-tetrahydro-1H-pyrido[3,4-b]indole], the IC50 was found to be 33.2 nM.
Consider `Nc1ncc(C2c3[nH]c4ccc(Cl)c(F)c4c3CCN2c2nccc(C(F)(F)F)n2)cn1` (stereo not shown) [Compound 225, 5-{6-chloro-5-fluoro-2-[4-(trifluoromethyl)pyrimidin-2-yl]-2,3,4,9-tetrahydro-1H-pyrido[3,4-b]indol-1-yl}pyrimidin-2-amine], for which the IC50 was found to be 18.3 nM.
As for `N#Cc1nc(N2CCc3c([nH]c4ccc(Cl)cc34)[C@@H]2c2cnc(N3CCOCC3)nc2)ncc1F` [Compound 396, 2-{(1S)-6-chloro-1-[2-(morpholin-4-yl)pyrimidin-5-yl]-1,3,4,9-tetrahydro-2H-pyrido[3,4-b]indol-2-yl}-5-fluoropyrimidine-4-carbonitrile], the figure is 2.4 nM; as for `N#Cc1ccc(C2c3[nH]c4ccc(Cl)c(F)c4c3CCN2c2ncc(Cl)cn2)cc1` (stereo not shown) [Compound 52, 4-[6-chloro-2-(5-chloropyrimidin-2-yl)-5-fluoro-2,3,4,9-tetrahydro-1H-pyrido[3,4-b]indol-1-yl]benzonitrile], 25.7 nM.
Consider `COc1ccc(C2c3[nH]c4cc(F)c(Cl)cc4c3CCN2c2ncc(F)cn2)cn1` (stereo not shown) [Compound 8, 6-chloro-7-fluoro-2-(5-fluoropyrimidin-2-yl)-1-(6-methoxypyridin-3-yl)-2,3,4,9-tetrahydro-1H-pyrido[3,4-b]indole], for which inhibition was half-maximal at 34.8 nM (IC50). This IC50 and that of the compound before are within 1.5-fold of each other.
The compound `Fc1ccc(C2c3[nH]c4ccc(Cl)cc4c3CCN2c2nccc(C(F)(F)F)n2)cc1` (stereo not shown) [Compound 422, 6-chloro-1-(4-fluorophenyl)-2-[4-(trifluoromethyl)pyrimidin-2-yl]-2,3,4,9-tetrahydro-1H-pyrido[3,4-b]indole] yielded an IC50 of 7.1 nM.
The value for `Cc1nc(N2CCc3c([nH]c4ccc(Cl)cc34)[C@@H]2c2ccc(N3CCOCC3)nc2)nc(C(F)(F)F)n1` [Compound 465, (1S)-6-chloro-2-[4-methyl-6-(trifluoromethyl)-1,3,5-triazin-2-yl]-1-[6-(morpholin-4-yl)pyridin-3-yl]-2,3,4,9-tetrahydro-1H-pyrido[3,4-b]indole] was 0.6 nM; that for `Cc1ccc(C2c3[nH]c4cc(F)c(Cl)cc4c3CCN2c2nc(C(F)(F)F)cc(C(F)(F)F)n2)c(F)c1F` (stereo not shown) [Compound 155, 2-[4,6-bis(trifluoromethyl)pyrimidin-2-yl]-6-chloro-1-(2,3-difluoro-4-methylphenyl)-7-fluoro-2,3,4,9-tetrahydro-1H-pyrido[3,4-b]indole] was 0.5 nM; that for `Cc1ccc(C2c3[nH]c4ccc(Cl)cc4c3CCN2c2nccc(C(F)(F)F)n2)cc1F` (stereo not shown) [Compound 354, 6-chloro-1-(3-fluoro-4-methylphenyl)-2-[4-(trifluoromethyl)pyrimidin-2-yl]-2,3,4,9-tetrahydro-1H-pyrido[3,4-b]indole] was 2.2 nM.
As for `Cc1ccc([C@H]2c3[nH]c4ccc(Cl)cc4c3CCN2c2nc(C)c(F)c(C#N)n2)c(F)c1F` [Compound 413, 2-[(1S)-6-chloro-1-(2,3-difluoro-4-methylphenyl)-1,3,4,9-tetrahydro-2H-pyrido[3,4-b]indol-2-yl]-5-fluoro-6-methylpyrimidine-4-carbonitrile], the figure is 0.8 nM; as for `Cc1ccc(C2c3[nH]c4ccc(Cl)c(F)c4c3CCN2c2ncc(F)c(C#N)n2)c(F)c1F` (stereo not shown) [Compound 214, 2-[6-chloro-1-(2,3-difluoro-4-methylphenyl)-5-fluoro-1,3,4,9-tetrahydro-2H-pyrido[3,4-b]indol-2-yl]-5-fluoropyrimidine-4-carbonitrile], 0.5 nM.
In turn, `CN(C)c1ncc(C2c3[nH]c4ccc(Cl)c(F)c4c3CCN2c2nccc(C(F)(F)F)n2)cn1` (stereo not shown) [Compound 178, 5-{6-chloro-5-fluoro-2-[4-(trifluoromethyl)pyrimidin-2-yl]-2,3,4,9-tetrahydro-1H-pyrido[3,4-b]indol-1-yl}-N,N-dimethylpyrimidin-2-amine] yielded an IC50 of 3.4 nM.
For the compound `FC(F)(F)c1nc(N2CCc3c([nH]c4ccc(-n5nccn5)cc34)[C@@H]2c2cnc(N3CCOCC3)nc2)nc(C(F)(F)F)n1` [Compound 516, (1S)-2-[4,6-bis(trifluoromethyl)-1,3,5-triazin-2-yl]-1-[2-(morpholin-4-yl)pyrimidin-5-yl]-6-(2H-1,2,3-triazol-2-yl)-2,3,4,9-tetrahydro-1H-pyrido[3,4-b]indole], the IC50 was determined as 1.4 nM.
As for `Cc1nc(N2CCc3c([nH]c4ccc(Cl)cc34)[C@@H]2c2cnc(N3CCOCC3)nc2)nc(C#N)c1F` [Compound 421, 2-{(1S)-6-chloro-1-[2-(morpholin-4-yl)pyrimidin-5-yl]-1,3,4,9-tetrahydro-2H-pyrido[3,4-b]indol-2-yl}-5-fluoro-6-methylpyrimidine-4-carbonitrile], the IC50 turned out to be 1.7 nM.
In the case of `Cc1ccc(C2c3[nH]c4ccc(Cl)cc4c3CCN2c2nccc(C(F)(F)F)n2)cc1O` (stereo not shown) [Compound 258, 5-{6-chloro-2-[4-(trifluoromethyl)pyrimidin-2-yl]-2,3,4,9-tetrahydro-1H-pyrido[3,4-b]indol-1-yl}-2-methylphenol], the concentration for half-maximal inhibition (IC50) came out at 28.3 nM. This IC50 lies about 17-fold higher than the previous one.
In the case of `FC(F)(F)c1nc(N2CCc3c([nH]c4ccc(-n5nccn5)cc34)[C@@H]2c2ccc(N3CCOCC3)nc2)nc(C(F)(F)F)n1` [Compound 486, (1S)-2-[4,6-bis(trifluoromethyl)-1,3,5-triazin-2-yl]-1-[6-(morpholin-4-yl)pyridin-3-yl]-6-(2H-1,2,3-triazol-2-yl)-2,3,4,9-tetrahydro-1H-pyrido[3,4-b]indole], the midpoint of inhibition, the IC50, lay at 0.4 nM. Compared with the last compound, the IC50 is about 71-fold lower.
As for `Cc1ccc([C@@H]2c3[nH]c4ccc(Cl)c(F)c4c3CCN2c2nc(C)c(F)c(C)n2)c(F)c1F` [Compound 190, (1R)-6-chloro-1-(2,3-difluoro-4-methylphenyl)-5-fluoro-2-(5-fluoro-4,6-dimethylpyrimidin-2-yl)-2,3,4,9-tetrahydro-1H-pyrido[3,4-b]indole], the figure is 420 nM.
